Measurements taken from patent publication US6812251B2, “Taurine compounds” (priority 2001, dated 2004).

Columns and labels:
[1] = tested on: PA1 human ovarian tumor cells; assay: Tumor cell growth inhibition, PA1 cells (cell counting); type: cell-based; conditions: PA-1, 5-100 μM, 3 d (72 h) exposure, electronic cell counting, mean ± SE, read-out: IC50 (concentration required to inhibit cell number by 50%)
[2] = Growth inhibition of a panel of cell lines by taurolidine; type: cell-based; conditions: range over all cell lines evaluated; read-out: IC50s, growth inhibition
[3] = tested on: DU-145 human prostate tumor cells; assay: Flow cytometry (propidium iodide) apoptosis, sub-G0/G1 peak; type: cell-based; conditions: DU-145 cells, 50 μM, 24 h
Stability in solution = type: physicochemical
Description: The prolonged stability is an advantage over taurolidine.

## O=S1(=O)CCN(CN2CCS(=O)(=O)NC2)CN1 [Taurolidine, Bis-(1,1-dioxoperhydro-1,2,4-thiadiazinyl-4)methane]
[1]
  IC50: 11.4 ± 1.8 µM
[2]
  IC50: 9.6 to 45 µM
[3]
  % apoptosis (sub-G0/G1 peak area): 12.27%
Stability in solution
  stability in solution: very unstable in solution and spontaneously decomposes
